Source: publication PMC11343938, “Micro-scale screening of genetically modified Fusarium fujikuroi strain extends the apicidin family” (Natural Products and Bioprospecting, 2024)
Where two headings read alike, the source gives them in different places. Square brackets hold non-standard residues; d marks the D form. Peptide text beside a SMILES is read from it. Trp(1-OMe) = COn1cc(C[C@H](N)C(=O)O)c2ccccc21; Asu = N[C@@H](CCCCCC(=O)O)C(=O)O; dPip = O=C(O)[C@H]1CCCCN1

How the values were obtained:
HepG2 (HB-8065) = conditions: resazurin assay, 24 h incubation, 0.01-100 µM tested
HDAC1 = target: T1, HDAC1 (Homo sapiens, UniProt Q13547); test: In vitro HDAC inhibition assay (ZMAL substrate), HDAC1; assay type: biochemical
T1 construct: purchased BPS Bioscience 50051
Experimental: (§1) In vitro inhibitory activity against HDAC1-3 and 6 was determined using our previously published assay protocol. […] Next, the total assay volume (50 µL, max. 1% DMSO) was incubated at 37 °C for 90 min. Subsequently, 50 µL trypsin solution (0.4 mg/mL trypsin in buffer: 50 mM Tris- HCl, pH 8.0, 100 mM NaCl) was added, followed by additional 30 min of incubation at 37 °C. Fluorescence (excitation: 355 nm, emission: 460 nm) was measured using a FLUOstar OPTIMA microplate reader (BMG LABTECH). The IC50 values were determined by generating normalized dose–response curves using the build-in "log(inhibitor) vs. response (three parameters)" equation provided by GraphPad Prism (GraphPad Prism 9.0, San Diego, USA). Compounds were tested in duplicates, reported mean IC50 values, including standard deviation, are calculated from at least two independent experiments.

[1] = test system: Trypanosoma brucei rhodesiense STIB 900; test: In vitro antiparasitic activity against T. brucei rhodesiense; assay type: cell-based; conditions: bloodstream trypomastigotes
Experimental: (§2) Furthermore, the whole set of isolated compounds was tested in vitro against T. brucei rhodesiense (bloodstream trypomastigotes) and P. falciparum (intraerythrocytic forms). All assays were performed using validated protocols at the Swiss TPH [34].

in vitro [2] = conditions: rat
A549 (CCL-185) = conditions: resazurin assay, 24 h incubation, 0.01-100 µM tested
P. falciparum NF54 = test: In vitro antiparasitic activity against P. falciparum; assay type: cell-based; conditions: Plasmodium falciparum, P. falciparum NF54, intraerythrocytic forms, read-out: IC50 inhibition of P. falciparum growth
Experimental: as §2

HDAC6 = target: T2, HDAC6 (Homo sapiens, UniProt Q9UBN7); test: In vitro HDAC inhibition assay (ZMAL substrate), HDAC6; assay type: biochemical
T2 construct: purchased BPS Bioscience 50006
T2 sequence (Q9UBN7 1-1215): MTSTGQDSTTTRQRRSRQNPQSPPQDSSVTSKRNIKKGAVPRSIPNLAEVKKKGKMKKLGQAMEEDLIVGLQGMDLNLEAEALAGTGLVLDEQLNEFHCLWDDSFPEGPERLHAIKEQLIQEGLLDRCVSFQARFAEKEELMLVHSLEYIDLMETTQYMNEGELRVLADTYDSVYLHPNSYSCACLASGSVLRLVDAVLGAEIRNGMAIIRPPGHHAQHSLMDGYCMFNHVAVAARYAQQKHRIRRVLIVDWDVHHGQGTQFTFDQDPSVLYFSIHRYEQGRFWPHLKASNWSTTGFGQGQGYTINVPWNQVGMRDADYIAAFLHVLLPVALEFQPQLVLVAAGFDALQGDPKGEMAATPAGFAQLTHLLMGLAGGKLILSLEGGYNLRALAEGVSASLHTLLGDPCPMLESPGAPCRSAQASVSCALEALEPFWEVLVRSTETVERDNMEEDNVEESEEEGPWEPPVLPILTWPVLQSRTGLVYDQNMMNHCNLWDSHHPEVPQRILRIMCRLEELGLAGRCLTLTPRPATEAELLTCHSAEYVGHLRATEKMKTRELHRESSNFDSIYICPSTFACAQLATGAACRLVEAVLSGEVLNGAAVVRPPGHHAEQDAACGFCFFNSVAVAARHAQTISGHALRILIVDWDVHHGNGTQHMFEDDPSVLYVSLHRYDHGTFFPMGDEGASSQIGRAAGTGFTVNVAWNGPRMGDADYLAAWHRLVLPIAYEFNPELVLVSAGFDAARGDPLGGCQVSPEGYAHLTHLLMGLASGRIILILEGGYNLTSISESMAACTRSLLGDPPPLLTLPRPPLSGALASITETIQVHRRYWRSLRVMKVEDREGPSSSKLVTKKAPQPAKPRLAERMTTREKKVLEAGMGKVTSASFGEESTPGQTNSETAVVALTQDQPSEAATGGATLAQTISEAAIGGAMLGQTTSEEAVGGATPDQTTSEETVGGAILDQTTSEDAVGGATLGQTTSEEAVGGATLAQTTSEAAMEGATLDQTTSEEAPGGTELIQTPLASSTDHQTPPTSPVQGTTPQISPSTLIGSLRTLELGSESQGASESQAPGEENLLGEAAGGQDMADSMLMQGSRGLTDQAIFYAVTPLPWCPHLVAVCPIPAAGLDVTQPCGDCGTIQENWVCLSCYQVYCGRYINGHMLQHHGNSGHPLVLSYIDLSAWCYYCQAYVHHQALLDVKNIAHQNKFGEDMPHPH
Experimental: as §1

HepG2 = conditions: human liver carcinoma cell line HepG2; cited from earlier work
Plasmodium falciparum = conditions: cited from earlier work
in vitro [3] = conditions: human
HDAC2 = target: T3, HDAC2 (Homo sapiens, UniProt Q92769); test: biochemical; conditions: mean ± SD of at least two independent experiments
T3 construct: purchased BPS Bioscience 50052
Experimental: as §1, with “USA).” for “USA). Compounds were tested in duplicates, reported mean IC50 values, including standard deviation, are calculated from at least two independent experiments.”

HDAC3/NcoR2 = target: T4, HDAC3/NcoR2 (Homo sapiens, UniProt O15379); test: In vitro HDAC inhibition assay (ZMAL substrate), HDAC3; assay type: biochemical; conditions: mean ± SD of at least two independent experiments
T4 construct: purchased BPS Bioscience 50003
Experimental: as §1

[4] = mean ± SD of at least two independent experiments, [b] < 30% inhibition at the stated concentration, read-out: IC50 HDAC1
[5] = mean ± SD of at least two independent experiments, [b] < 30% inhibition at the stated concentration, read-out: IC50 HDAC6

T1 sequence (Q13547 whole entry): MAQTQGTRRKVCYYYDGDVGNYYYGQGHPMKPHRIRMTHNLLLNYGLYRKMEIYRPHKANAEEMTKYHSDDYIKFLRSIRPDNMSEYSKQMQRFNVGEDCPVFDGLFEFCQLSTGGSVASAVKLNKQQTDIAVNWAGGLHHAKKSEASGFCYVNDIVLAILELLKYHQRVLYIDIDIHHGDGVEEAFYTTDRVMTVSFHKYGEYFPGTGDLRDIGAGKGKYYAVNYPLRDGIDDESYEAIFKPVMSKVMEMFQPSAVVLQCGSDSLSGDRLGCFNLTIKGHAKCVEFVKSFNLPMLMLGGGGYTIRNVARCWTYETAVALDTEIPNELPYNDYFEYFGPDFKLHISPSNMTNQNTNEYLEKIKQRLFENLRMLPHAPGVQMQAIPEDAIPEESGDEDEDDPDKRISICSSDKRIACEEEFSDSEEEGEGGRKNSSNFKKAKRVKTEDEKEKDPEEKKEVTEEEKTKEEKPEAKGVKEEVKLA
T3 sequence (Q92769 whole entry): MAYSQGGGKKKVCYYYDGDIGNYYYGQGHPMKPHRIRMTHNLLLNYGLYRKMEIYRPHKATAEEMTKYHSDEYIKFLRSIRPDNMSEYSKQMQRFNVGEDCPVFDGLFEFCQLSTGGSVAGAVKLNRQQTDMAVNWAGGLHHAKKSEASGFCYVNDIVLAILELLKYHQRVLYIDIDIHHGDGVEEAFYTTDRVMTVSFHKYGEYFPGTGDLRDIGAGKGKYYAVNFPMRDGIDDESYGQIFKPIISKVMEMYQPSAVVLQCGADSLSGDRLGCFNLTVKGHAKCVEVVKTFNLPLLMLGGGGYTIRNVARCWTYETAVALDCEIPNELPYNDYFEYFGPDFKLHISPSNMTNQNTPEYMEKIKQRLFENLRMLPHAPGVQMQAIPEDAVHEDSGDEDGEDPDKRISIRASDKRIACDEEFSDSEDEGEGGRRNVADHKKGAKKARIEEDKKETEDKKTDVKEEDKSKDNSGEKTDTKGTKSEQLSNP
T4 sequence (O15379 whole entry): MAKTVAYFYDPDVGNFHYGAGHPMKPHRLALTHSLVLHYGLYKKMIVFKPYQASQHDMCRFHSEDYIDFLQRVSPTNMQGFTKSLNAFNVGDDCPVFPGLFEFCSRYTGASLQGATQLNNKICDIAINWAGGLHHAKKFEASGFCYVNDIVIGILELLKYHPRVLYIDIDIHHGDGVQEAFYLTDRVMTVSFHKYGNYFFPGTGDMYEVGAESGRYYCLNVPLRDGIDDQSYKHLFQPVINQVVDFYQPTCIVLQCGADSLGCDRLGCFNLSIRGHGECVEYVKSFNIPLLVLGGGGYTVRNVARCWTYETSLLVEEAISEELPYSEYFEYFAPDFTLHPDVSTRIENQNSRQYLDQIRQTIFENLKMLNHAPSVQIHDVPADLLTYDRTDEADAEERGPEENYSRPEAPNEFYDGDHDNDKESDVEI
T4 sequence (Q9Y618 395-489 partner limits assumed): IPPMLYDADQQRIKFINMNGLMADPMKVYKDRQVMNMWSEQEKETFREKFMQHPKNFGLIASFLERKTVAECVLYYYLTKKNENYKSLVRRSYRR

## COn1cc(C[C@@H]2NC(=O)[C@H](CCCCCCO)NC(=O)[C@H]3CCCN3C(=O)[C@H](Cc3ccccc3)NC2=O)c2ccccc21 [Apicidin L (4), (3S,6S,9S,14aR)-9-benzyl-3-(6-hydroxyhexyl)-6-[(1-methoxy-1H-indol-3-yl)methyl]decahydropyrrolo[1,2-a][1,4,7,10]tetraazacyclododecine-1,4,7,10-tetraone]
HepG2 (HB-8065)
  IC50 cytotoxicity HepG2: no IC50 could be calculated
HDAC1
  IC50: > 10 µM
[1]
  Activity against Trypanosoma brucei rhodesiense STIB 900: no effect
In vitro [2]
  IC50: 20 µM
A549 (CCL-185)
  IC50 cytotoxicity A549: no IC50 could be calculated
P. falciparum NF54
  IC50: 2.1 µM
HDAC6
  IC50: > 10 µM

## COn1cc(C[C@@H]2NC(=O)[C@H](CCCCCCO)NC(=O)[C@H]3CCCCN3C(=O)[C@H](Cc3ccccc3)NC2=O)c2ccccc21 [Apicidin K (3), (3S,6S,9S,12R)-3-benzyl-9-(6-hydroxyhexyl)-6-[(1-methoxyindol-3-yl)methyl]-1,4,7,10-tetrazabicyclo[10.4.0]hexadecane-2,5,8,11-tetrone]
HDAC1; [4]
  IC50: > 3.33 µM
In vitro [2]
  IC50: 7.2 µM
P. falciparum NF54
  IC50: 1.1 µM
HDAC6; [5]
  IC50: > 10 µM

## CCC(=O)CCCCC[C@@H]1NC(=O)[C@H]2CCCCN2C(=O)[C@H]([C@@H](C)CC)NC(=O)[C@H](Cc2cn(OC)c3ccccc23)NC1=O [apicidin (5), apicidin]
HepG2
  IC50: 1.3 µM
Plasmodium falciparum; read-out: IC50 in the P. falciparum assay
  IC50: 0.2 µM
In vitro [3]
  IC50: 2.7 µM

## COn1cc(C[C@@H]2NC(=O)[C@H](CCCCCC(=O)O)NC(=O)[C@H]3CCCN3C(=O)[C@H](Cc3ccccc3)NC2=O)c2ccccc21 [Apicidin J (2), 6-[(3S,6S,9S,12R)-3-benzyl-6-[(1-methoxyindol-3-yl)methyl]-2,5,8,11-tetraoxo-1,4,7,10-tetrazabicyclo[10.3.0]pentadecane-9-yl]hexanoate] (cyclo([Asu][Trp(1-OMe)]F[dP]))
HDAC2
  IC50: 0.633 ± 0.028 µM
HepG2 (HB-8065)
  IC50 cytotoxicity HepG2: no IC50 could be calculated
HDAC1; [4]
  IC50: 0.342 ± 0.018 µM
In vitro [2]
  IC50: 46.5 µM
HDAC3/NcoR2
  IC50: 0.754 ± 0.112 µM
A549 (CCL-185)
  IC50 cytotoxicity A549: no IC50 could be calculated
P. falciparum NF54
  IC50: 1.1 µM
HDAC6; [5]
  IC50: 9.87 ± 1.4 µM

## COn1cc(C[C@@H]2NC(=O)[C@H](CCCCCC(=O)O)NC(=O)[C@H]3CCCCN3C(=O)[C@H](Cc3ccccc3)NC2=O)c2ccccc21 [Apicidin F (1), 6-[(3S,6S,9S,12R)-3-benzyl-6-[(1-methoxyindol-3-yl)methyl]-2,5,8,11-tetraoxo-1,4,7,10-tetrazabicyclo[10.4.0]hexadecane-9-yl]hexanoic acid] (cyclo([Asu][Trp(1-OMe)]F[dPip]))
HepG2
  IC50: 110 µM
HDAC2
  IC50: 0.164 ± 0.017 µM
HDAC1; [4]
  IC50: 0.102 ± 0.004 µM
Plasmodium falciparum; read-out: IC50 antiparasitic activity against Plasmodium falciparum
  IC50: 0.67 µM
In vitro [2]
  IC50: 63.7 µM
HDAC3/NcoR2
  IC50: 0.202 ± 0.026 µM
P. falciparum NF54
  IC50: 0.51 µM
HDAC6; [5]
  IC50: 6.38 ± 1.57 µM
